Results as given in paper PMC11309765, “Mechanism of the blood-brain barrier modulation by cadherin peptides” (Exploration of drug science, 2024).
“Also recorded” adds a separate entry of the source. Bridges are numbered along the chain shown (N, C = ends).

Assays:
EC1 domain of E-cadherin = conditions: cited from earlier work
From the text: The BBB paracellular porosity can be magnified by Ala-Asp-Thr (ADT) and His-Ala-Val (HAV) peptides that were derived from cadherin sequences to inhibit cadherin-cadherin interactions. The ADT and HAV peptides were designed from the amino acid sequences of the bulge and grove regions in the cadherin EC1 domain, respectively. As BBB modulators (BBBMs), both ADT and/or HAV peptides enhanced brain depositions of various sizes of molecules to the brain parenchyma such as IRdye 800CW, ^3H-daunomycin, adenanthin, or gadolinium-diethylenetriaminepentacetate (Gd-DTPA or gadopent ... || Figure 6. The proposed mechanisms of binding for Ala-Asp-Thr (ADT) and His-Ala-Val (HAV) peptides to extracellular-1 (EC1) domain of cadherin to inhibit cadherin-cadherin interactions. (A) A model to represent cadherin-to-cadherin interactions in the paracellular pathway at the adherens junction. First is the cis-interaction of EC1 and EC2 on two cadherin proteins that are protruding from one side of cell membranes. Second is the trans-interaction of EC1-EC1 from two cadherins that reside in two opposite membranes; (B) the EC1-EC1 interaction with domain swapping between the N-terminal Trp2 an ... || We hypothesized that HAV and ADT peptides prevent cadherin-cadherin interactions by binding to EC1 in the BBB adherens junctions (Figure 6C and D). Cadherin peptides disrupt the integrity of cell-cell adhesion in dynamics and reversible fashion in paracellular pathways of the BBB. Thus, the NMR and molecular docking experiments were carried out to determine the EC1 binding properties of ADT peptides.

[1] = system: blood-brain barrier (BBB); conditions: cited from earlier work
From the text: In addition, Gd-DTPA delivery to the brain was enhanced when co-administered with ADTC5 in living mice upon detection with magnetic resonance imaging (MRI). […] Different cadherin peptides produced different durations of the BBB opening for different sizes of del ...

BBB [2] = conditions: in vivo; cited from earlier work
From the text: As BBBMs, the in vivo activities of ADT and HAV peptides to modulate the BBB were transient and reversible. […] Different cadherin peptides produced different durations of the BBB opening for different sizes of del ...

BBB [3] = system: BBB; parameters: method as in 3 sources, ref 49 = [49]; PMID 12754091; doi:10.1016/s0361-9230(03)00043-1; 49. Borlongan CV , Emerich DF . Facilitation of drug entry into the CNS via transient permeation of blood brain barrier: laboratory and preliminary clinical evidence from bradykinin receptor agonist, ||| ref 50 = [50]; PMID 22524793; doi:10.1021/mp3000937; 50. Zwanziger D , Hackel D , Staat C , Böcker A , Brack A , Beyermann M , A peptidomimetic tight junction modulator to improve regional analgesia . Mol Pharm . 2012; 9 : 1785 – 94 . 22524793 10.1021/ ||| ref 43-45 = [43]; PMID 25307218; doi:10.1016/bs.apha.2014.06.002; 43. Doolittle ND , Muldoon LL , Culp AY , Neuwelt EA . Delivery of chemotherapeutics across the blood-brain barrier: challenges and advances . Adv Pharmacol . 2014; 71 : 203 – 43 . 25307218 10.1016/b || [44]; 44. Smith QR . Quantitation of Blood-Brain Barrier Permeability . In: Neuwelt EA , editor. Implications of the Blood-Brain Barrier and Its Manipulation: Volume 1 Basic Science Aspects . Boston, MA : S || [45]; PMID 3930991; doi:10.1227/00006123-198509000-00004; 45. Neuwelt EA , Barnett PA , McCormick CI , Frenkel EP , Minna JD . Osmotic blood-brain barrier modification: monoclonal antibody, albumin, and methotrexate delivery to cerebrospinal fluid and brain; conditions: hypertonic mannitol solution; cited from earlier work
[4] = biological target: 15N-labeled extracellular-1 (EC1) domain of human E-cadherin (human, UniProt P12830 155-367, 15N-labeled); experiment: NMR titration; 1H-15N HSQC (600 MHz) of 15N-labeled EC1 titrated with peptide; 20.0 mM potassium phosphate, 5.0 mM DTT, pH 6.0, 6% D2O; chemical shift perturbation; Kd from the titration curve of a single residue (Ile53 or Leu21); conditions: both partners purified
15N-labeled extracellular-1 (EC1) domain of human E-cadherin, sequence (P12830 155-367): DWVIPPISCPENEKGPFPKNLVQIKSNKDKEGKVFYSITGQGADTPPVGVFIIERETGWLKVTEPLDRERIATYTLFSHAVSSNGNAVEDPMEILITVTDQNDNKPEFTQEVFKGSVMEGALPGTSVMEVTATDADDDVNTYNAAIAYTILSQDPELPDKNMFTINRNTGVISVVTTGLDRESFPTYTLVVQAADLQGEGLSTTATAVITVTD

Cyclo(1,6)Ac-CSHAVC-NH2 (disulfide) [cHAVc3]
EC1 binding and effect on cis-cadherin interactions (EC1 domain of E-cadherin): increased the porosity of the paracellular route through binding to the EC1 domain followed by disruption of the cis-cadherin interactions | EC1 binding site location (EC1 domain of E-cadherin): found at the opposite side of ADT cyclic 5 (ADTC5) binding site; also recorded: dock on the surface of EC1 that interacts with the EC2 surface from a neighboring cadherin protein; also recorded: binds to the opposite side of ADTC5-binding site

Ac-SHAVSS-NH2 [HAV6, reference compound]
delivery of mAb to brain ([1]; 150 kDa mAb): could not deliver mAb when administered together | duration of BBB opening for transport of Gd-DTPA ([1]; Gd-DTPA): less than 45 min | delivery of Galbumin to brain ([1]; delay in the administration of HAV6 and Galbumin): could not deliver Galbumin when there was a delay in the administration of HAV6 and Galbumin | inflammation and astrogliosis (BBB [2]): did not induce inflammation and astrogliosis | EC1 binding site location (EC1 domain of E-cadherin): dock on the surface of EC1 that interacts with the EC2 surface from a neighboring cadherin protein

OC[C@@H](O)[C@@H](O)[C@H](O)[C@H](O)CO [mannitol]
BBB paracellular porosity by osmotic disruption (BBB [3]): increase paracellular porosity of the intercellular junctions

B1: ADTC9 (peptide)
peptide: Ac-CDTPPYC-NH2
modifications: disulfide 1-7
SMILES: CC(=O)N[C@H]1CSSC[C@@H](C(N)=O)NC(=O)[C@H](Cc2ccc(O)cc2)NC(=O)[C@@H]2CCCN2C(=O)[C@@H]2CCCN2C(=O)[C@H]([C@@H](C)O)NC(=O)[C@H](CC(=O)O)NC1=O
notes: Cyclo(1,7)Ac-CDTPPYC-NH2; derivative of ADTC5 with Val6 replaced by Tyr6; source: synthetic peptide (Fmoc solid-phase synthesis, HPLC purified, cyclized by air oxidation)
Kd [4]: 181 µM

B2: ADTC7 (peptide)
peptide: Ac-CDTPPEC-NH2
modifications: disulfide 1-7
SMILES: CC(=O)N[C@H]1CSSC[C@@H](C(N)=O)NC(=O)[C@H](CCC(=O)O)NC(=O)[C@@H]2CCCN2C(=O)[C@@H]2CCCN2C(=O)[C@H]([C@@H](C)O)NC(=O)[C@H](CC(=O)O)NC1=O
notes: Cyclo(1,7)Ac-CDTPPEC-NH2; derivative of ADTC5 with Val6 replaced by Glu6; source: synthetic peptide (Fmoc solid-phase synthesis, HPLC purified, cyclized by air oxidation)
Kd [4]: 64 µM

B3: Ala-Asp-Thr Cyclic 5 (ADTC5) (peptide)
peptide: Ac-CDTPPVC-NH2
modifications: disulfide 1-7
SMILES: CC(=O)N[C@H]1CSSC[C@@H](C(N)=O)NC(=O)[C@H](C(C)C)NC(=O)[C@@H]2CCCN2C(=O)[C@@H]2CCCN2C(=O)[C@H]([C@@H](C)O)NC(=O)[C@H](CC(=O)O)NC1=O
notes: Cyclo(1,7)Ac-CDTPPVC-NH2; ADT peptide designed from the bulge region of the cadherin EC1 domain; also called ADT cyclic 5; source: synthetic peptide (Fmoc solid-phase synthesis, HPLC purified, cyclized by air oxidation)
Kd [4]: 35 µM
